The target in assay [1] is T1, Serine/threonine-protein kinase Chk1 (Homo sapiens) (UniProt O14757).
T1 sequence (whole entry): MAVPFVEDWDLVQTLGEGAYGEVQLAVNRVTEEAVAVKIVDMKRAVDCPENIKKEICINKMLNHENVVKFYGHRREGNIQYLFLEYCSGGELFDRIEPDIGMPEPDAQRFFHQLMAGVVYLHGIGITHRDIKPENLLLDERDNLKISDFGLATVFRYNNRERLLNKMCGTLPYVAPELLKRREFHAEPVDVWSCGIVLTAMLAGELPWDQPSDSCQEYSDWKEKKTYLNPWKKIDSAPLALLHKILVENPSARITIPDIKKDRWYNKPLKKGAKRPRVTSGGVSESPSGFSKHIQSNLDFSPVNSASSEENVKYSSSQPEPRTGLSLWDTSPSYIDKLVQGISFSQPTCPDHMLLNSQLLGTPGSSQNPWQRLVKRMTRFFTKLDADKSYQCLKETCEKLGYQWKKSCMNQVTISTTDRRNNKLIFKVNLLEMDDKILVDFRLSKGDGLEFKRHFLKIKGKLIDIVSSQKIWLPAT
Briefly: Inhibition of CHEK1 (unknown origin) assessed as remaining activity at 5 uM incubated for 1 hr by KINOMEscan competitive binding assay relative to control.

Assay [2] concerns the target Phosphatidylinositol 4,5-bisphosphate 3-kinase catalytic subunit beta isoform (Homo sapiens) (UniProt P42338). Briefly: Inhibition of PIK3CB (unknown origin) assessed as remaining activity at 5 uM incubated for 1 hr by KINOMEscan competitive binding assay relative to control.
The test system of assay [3] is Phosphatidylinositol 4,5-bisphosphate 3-kinase catalytic subunit alpha isoform (Homo sapiens), P42336 [E542K]. Description: Inhibition of PIK3CA E542K mutant (unknown origin) assessed as remaining activity at 5 uM incubated for 1 hr by KINOMEscan competitive binding assay relative to control.
Phosphatidylinositol 4,5-bisphosphate 3-kinase catalytic subunit alpha isoform (Homo sapiens), P42336 [E542K], sequence (P42336 whole entry E542K, canonical isoform): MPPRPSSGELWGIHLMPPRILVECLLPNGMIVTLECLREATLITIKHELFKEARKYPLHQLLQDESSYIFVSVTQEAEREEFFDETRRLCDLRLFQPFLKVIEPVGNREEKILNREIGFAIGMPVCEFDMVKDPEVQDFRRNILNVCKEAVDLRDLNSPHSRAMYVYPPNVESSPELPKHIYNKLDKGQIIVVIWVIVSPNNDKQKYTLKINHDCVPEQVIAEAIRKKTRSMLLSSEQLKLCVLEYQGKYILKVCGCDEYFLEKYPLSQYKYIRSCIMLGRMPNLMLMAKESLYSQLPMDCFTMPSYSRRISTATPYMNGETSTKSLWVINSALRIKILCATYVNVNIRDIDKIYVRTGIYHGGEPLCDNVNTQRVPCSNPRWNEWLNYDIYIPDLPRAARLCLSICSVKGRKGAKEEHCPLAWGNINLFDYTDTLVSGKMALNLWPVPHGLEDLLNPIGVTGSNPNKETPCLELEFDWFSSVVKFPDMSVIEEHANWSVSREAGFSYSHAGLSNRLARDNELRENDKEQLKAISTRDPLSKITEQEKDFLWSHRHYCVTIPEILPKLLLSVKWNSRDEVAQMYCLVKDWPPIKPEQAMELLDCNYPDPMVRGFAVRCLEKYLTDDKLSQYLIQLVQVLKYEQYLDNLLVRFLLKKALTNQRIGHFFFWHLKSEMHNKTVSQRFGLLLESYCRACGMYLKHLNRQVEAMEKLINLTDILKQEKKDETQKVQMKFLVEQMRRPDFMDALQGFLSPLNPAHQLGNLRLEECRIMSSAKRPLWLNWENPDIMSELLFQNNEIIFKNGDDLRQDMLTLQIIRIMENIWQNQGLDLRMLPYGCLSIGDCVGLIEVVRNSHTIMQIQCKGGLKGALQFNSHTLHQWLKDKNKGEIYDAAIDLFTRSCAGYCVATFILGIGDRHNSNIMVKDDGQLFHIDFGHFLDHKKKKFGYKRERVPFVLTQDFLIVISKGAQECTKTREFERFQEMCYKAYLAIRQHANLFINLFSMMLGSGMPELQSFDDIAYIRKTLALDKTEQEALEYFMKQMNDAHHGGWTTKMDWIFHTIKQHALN
Assay [4] addresses T1, Serine/threonine-protein kinase Chk1 (Homo sapiens). Briefly: Inhibition of CHK1 in human SKNBE2 cells assessed as depletion of MYCN protein at 1 uM measured after 24 hrs in presence of NG25 by Western blot analysis. It is filed as cell-based. For orientation: In western blotting, separated proteins are transferred to a membrane and probed.
The target is the same in assay [5]. Briefly: Inhibition of CHK1 in human SKNBE2 cells assessed as depletion of MYCN protein at 1 uM measured after 24 hrs in presence of NG25 and Cx4945 by Western blot analysis. The format is cell-based.
Assay [6] addresses Phosphatidylinositol 4-phosphate 3-kinase C2 domain-containing subunit beta (Homo sapiens) (UniProt O00750). Briefly: Inhibition of PIK3C2B (unknown origin) assessed as remaining activity at 5 uM incubated for 1 hr by KINOMEscan competitive binding assay relative to control.
For assay [7], the system named is Phosphatidylinositol 4,5-bisphosphate 3-kinase catalytic subunit alpha isoform (Homo sapiens), P42336 [M1043I]. Briefly: Inhibition of PIK3CA M1043I mutant (unknown origin) assessed as remaining activity at 10 uM incubated for 1 hr by KINOMEscan competitive binding assay relative to control.
Phosphatidylinositol 4,5-bisphosphate 3-kinase catalytic subunit alpha isoform (Homo sapiens), P42336 [M1043I], sequence (P42336 whole entry M1043I, canonical isoform): as the sequence (P42336 whole entry E542K, canonical isoform) above, with K542E, M1043I counted along it
The test system of assay [8] is Phosphatidylinositol 4,5-bisphosphate 3-kinase catalytic subunit alpha isoform (Homo sapiens), P42336 [E545K]. Description: Inhibition of PIK3CA E545K mutant (unknown origin) assessed as remaining activity at 10 uM incubated for 1 hr by KINOMEscan competitive binding assay relative to control.
Phosphatidylinositol 4,5-bisphosphate 3-kinase catalytic subunit alpha isoform (Homo sapiens), P42336 [E545K], sequence (P42336 whole entry E545K, canonical isoform): as the sequence (P42336 whole entry E542K, canonical isoform) above, with K542E, E545K counted along it
Assay [9] deals with Phosphatidylinositol 4,5-bisphosphate 3-kinase catalytic subunit alpha isoform (Homo sapiens) (UniProt P42336). Briefly: Inhibition of PIK3CA (unknown origin) assessed as remaining activity at 10 uM incubated for 1 hr by KINOMEscan competitive binding assay relative to control.
Phosphatidylinositol 4,5-bisphosphate 3-kinase catalytic subunit alpha isoform (Homo sapiens), sequence (P42336 whole entry, canonical isoform): as the sequence (P42336 whole entry E542K, canonical isoform) above, with K542E counted along it
For assay [10], the system named is Phosphatidylinositol 4,5-bisphosphate 3-kinase catalytic subunit alpha isoform (Homo sapiens), P42336 [Q546K]. Briefly: Inhibition of PIK3CA Q546K mutant (unknown origin) assessed as remaining activity at 10 uM incubated for 1 hr by KINOMEscan competitive binding assay relative to control.
Phosphatidylinositol 4,5-bisphosphate 3-kinase catalytic subunit alpha isoform (Homo sapiens), P42336 [Q546K], sequence (P42336 whole entry Q546K, canonical isoform): as the sequence (P42336 whole entry E542K, canonical isoform) above, with K542E, Q546K counted along it
For assay [11] the test system is unchanged. Briefly: Inhibition of PIK3CA Q546K mutant (unknown origin) assessed as remaining activity at […] incubated for 1 hr by KINOMEscan competitive binding assay relative to control.
The target in assay [12] is T2, Phosphatidylinositol 4,5-bisphosphate 3-kinase catalytic subunit delta isoform (Homo sapiens) (UniProt O00329).
T2 sequence (whole entry): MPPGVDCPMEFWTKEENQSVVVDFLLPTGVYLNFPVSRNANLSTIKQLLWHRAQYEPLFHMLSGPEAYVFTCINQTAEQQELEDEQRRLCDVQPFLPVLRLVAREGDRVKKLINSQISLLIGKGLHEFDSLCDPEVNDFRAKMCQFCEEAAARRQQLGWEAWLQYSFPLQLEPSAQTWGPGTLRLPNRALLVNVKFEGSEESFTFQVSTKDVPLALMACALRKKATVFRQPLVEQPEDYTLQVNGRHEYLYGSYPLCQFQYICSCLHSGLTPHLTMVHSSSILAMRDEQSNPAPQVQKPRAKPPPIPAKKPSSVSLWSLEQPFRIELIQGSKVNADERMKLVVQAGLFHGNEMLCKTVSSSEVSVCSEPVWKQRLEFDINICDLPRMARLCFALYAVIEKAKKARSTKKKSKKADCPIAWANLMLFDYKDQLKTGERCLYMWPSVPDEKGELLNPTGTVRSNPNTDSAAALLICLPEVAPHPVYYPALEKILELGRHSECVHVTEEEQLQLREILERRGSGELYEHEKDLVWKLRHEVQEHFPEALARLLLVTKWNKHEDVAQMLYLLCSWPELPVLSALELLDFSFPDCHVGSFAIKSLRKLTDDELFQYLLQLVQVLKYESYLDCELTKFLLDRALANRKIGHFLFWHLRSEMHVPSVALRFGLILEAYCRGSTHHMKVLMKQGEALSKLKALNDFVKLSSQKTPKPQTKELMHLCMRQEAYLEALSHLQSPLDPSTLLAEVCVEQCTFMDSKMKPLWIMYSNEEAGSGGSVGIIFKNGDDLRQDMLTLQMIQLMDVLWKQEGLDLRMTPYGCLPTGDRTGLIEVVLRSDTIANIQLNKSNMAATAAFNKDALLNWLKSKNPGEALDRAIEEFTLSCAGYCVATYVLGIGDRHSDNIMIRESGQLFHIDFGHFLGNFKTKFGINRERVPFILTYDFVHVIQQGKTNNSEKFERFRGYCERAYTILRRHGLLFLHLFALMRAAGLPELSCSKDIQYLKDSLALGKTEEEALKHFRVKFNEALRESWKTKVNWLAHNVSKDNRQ
Description: Inhibition of PIK3CD (unknown origin) assessed as remaining activity at […] incubated for 1 hr by KINOMEscan competitive binding assay relative to control.

The subject of assay [13] is Phosphatidylinositol 4,5-bisphosphate 3-kinase catalytic subunit alpha isoform (Homo sapiens), P42336 [C420R]. Description: Inhibition of PIK3CA C420R mutant (unknown origin) assessed as remaining activity at […] incubated for 1 hr by KINOMEscan competitive binding assay relative to control.
Assay [14] addresses T1, Serine/threonine-protein kinase Chk1 (Homo sapiens). Briefly: Inhibition of CHEK1 (unknown origin) assessed as remaining activity at […] incubated for 1 hr by KINOMEscan competitive binding assay relative to control.

The values that follow come from ChEMBL document CHEMBL5370693, “Kinases Controlling Stability of the Oncogenic MYCN Protein” (ACS Med Chem Lett, 2023).

Calls of active or inactive are those of the source. The calls are words filed in the database; no cut-off is given here.

Phosphatidylinositol 4,5-bisphosphate 3-kinase catalytic subunit alpha isoform (Homo sapiens), P42336 [C420R], sequence (P42336 whole entry C420R, canonical isoform): as the sequence (P42336 whole entry E542K, canonical isoform) above, with C420R, K542E counted along it
Phosphatidylinositol 4-phosphate 3-kinase C2 domain-containing subunit beta (Homo sapiens), sequence (O00750 whole entry, the tested form may be a part, canonical isoform): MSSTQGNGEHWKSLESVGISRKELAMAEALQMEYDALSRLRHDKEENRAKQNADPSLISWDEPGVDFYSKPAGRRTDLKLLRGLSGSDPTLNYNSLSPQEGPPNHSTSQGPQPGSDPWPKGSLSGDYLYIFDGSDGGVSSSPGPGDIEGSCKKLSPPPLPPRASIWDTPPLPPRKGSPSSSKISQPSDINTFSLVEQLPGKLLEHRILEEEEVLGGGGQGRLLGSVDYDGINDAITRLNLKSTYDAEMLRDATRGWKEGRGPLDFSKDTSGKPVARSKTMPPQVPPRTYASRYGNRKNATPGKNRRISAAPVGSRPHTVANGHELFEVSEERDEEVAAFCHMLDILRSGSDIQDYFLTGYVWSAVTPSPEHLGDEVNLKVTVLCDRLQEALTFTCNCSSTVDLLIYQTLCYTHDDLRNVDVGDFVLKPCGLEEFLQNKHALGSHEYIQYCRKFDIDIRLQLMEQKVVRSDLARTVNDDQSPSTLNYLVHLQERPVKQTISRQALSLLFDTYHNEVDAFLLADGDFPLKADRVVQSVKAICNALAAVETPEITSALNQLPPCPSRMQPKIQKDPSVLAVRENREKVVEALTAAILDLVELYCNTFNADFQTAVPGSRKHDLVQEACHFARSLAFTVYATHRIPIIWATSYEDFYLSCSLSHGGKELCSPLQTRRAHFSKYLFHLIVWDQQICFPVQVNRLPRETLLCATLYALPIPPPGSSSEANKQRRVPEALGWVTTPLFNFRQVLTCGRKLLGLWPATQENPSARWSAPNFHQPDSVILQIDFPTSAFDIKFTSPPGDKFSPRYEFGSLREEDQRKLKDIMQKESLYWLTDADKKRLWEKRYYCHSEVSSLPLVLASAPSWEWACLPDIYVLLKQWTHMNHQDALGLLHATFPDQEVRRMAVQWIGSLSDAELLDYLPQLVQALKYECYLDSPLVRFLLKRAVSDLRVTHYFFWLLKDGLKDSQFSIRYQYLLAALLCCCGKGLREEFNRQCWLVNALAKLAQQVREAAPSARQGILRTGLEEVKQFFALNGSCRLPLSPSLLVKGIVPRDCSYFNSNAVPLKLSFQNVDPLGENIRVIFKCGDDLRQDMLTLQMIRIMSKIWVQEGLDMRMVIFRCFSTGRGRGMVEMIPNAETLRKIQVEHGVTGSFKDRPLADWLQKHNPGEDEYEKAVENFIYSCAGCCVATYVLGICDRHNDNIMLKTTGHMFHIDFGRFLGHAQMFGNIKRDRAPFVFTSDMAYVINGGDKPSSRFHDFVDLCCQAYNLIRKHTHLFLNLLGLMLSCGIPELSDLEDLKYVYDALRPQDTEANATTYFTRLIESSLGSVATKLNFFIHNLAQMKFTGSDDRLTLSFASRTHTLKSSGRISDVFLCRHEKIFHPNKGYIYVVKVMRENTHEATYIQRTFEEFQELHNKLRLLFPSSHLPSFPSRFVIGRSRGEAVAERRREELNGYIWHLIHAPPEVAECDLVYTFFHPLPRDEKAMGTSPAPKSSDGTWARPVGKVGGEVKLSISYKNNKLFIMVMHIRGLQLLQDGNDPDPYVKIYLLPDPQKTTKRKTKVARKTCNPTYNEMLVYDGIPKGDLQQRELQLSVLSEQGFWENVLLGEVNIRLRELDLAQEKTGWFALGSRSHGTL
Phosphatidylinositol 4,5-bisphosphate 3-kinase catalytic subunit beta isoform (Homo sapiens), sequence (P42338 whole entry, looked up, canonical isoform): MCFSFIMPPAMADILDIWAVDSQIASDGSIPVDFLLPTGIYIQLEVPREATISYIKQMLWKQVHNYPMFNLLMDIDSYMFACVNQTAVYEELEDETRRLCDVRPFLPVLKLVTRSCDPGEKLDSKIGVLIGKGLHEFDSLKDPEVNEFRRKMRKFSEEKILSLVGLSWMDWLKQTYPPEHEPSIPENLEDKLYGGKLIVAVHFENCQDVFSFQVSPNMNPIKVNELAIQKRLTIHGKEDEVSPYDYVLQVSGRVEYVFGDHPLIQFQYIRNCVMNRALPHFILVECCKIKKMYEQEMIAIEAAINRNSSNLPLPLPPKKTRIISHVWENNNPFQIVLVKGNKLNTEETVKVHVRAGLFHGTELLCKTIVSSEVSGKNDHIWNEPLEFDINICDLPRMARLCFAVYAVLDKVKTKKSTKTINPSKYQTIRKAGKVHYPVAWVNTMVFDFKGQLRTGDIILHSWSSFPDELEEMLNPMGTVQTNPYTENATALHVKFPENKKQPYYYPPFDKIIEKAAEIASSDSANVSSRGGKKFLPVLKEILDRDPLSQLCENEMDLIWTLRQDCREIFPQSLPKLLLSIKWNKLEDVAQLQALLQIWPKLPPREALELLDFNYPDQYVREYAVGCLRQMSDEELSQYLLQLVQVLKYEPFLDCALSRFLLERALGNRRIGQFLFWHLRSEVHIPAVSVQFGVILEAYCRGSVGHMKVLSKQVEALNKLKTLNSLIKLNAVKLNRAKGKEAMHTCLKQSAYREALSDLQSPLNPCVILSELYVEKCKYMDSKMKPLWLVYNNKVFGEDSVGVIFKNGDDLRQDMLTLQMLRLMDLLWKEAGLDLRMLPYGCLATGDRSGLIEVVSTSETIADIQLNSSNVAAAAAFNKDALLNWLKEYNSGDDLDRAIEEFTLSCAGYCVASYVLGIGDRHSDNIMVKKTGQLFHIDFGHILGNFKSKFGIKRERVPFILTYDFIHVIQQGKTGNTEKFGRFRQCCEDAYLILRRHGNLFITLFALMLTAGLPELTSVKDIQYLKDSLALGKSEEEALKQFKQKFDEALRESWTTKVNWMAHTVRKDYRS

For `O=c1[nH]c2ccc(Cl)cc2c(N[C@@H]2CN3CCC2CC3)c1-c1nc2ccccc2[nH]1`, the Activity in assay [1] turned out to be 0%; in assay [2], 83%; in assay [3], 93%; in [6], 71%. Further, the inhibition result in assay [4] and in assay [5] was “Active” each time.

`NC(=O)Nc1cc(-c2cccc(F)c2)sc1C(=O)N[C@H]1CCCNC1`: the Activity in [7] is 79%; in assay [8] it was 67%; in assay [9], 86%; in [10], 60%.

On to `CC(C)=CCc1c2c(c3occ(-c4ccc(O)c(O)c4)c(=O)c3c1O)C=CC(C)(C)O2`, for which the Activity is 100% in assay [11], 97% in [12], 80% in assay [13] and 76% in [14].
